Read-outs that look alike come from different tables or passages of the source.
What was measured:
[1] = tested on: NCI-H1048 (small cell lung cancer); assay: PI3K viability assay, NCI-H1048 cells; format: cell-based; details: Homo sapiens
Experimental: (§1) PI3K viability assays were carried out on the payloads and conjugates. HCT-116 (human colon carcinoma), NCI-H460 (human non-small cell lung carcinoma), and NCI-H1048 (small cell lung cancer) cells were treated with conjugates and payloads for 4 hours. After 4 hours, compounds were washed out and cells assayed for viability 72 hrs post wash out.

[2] = tested on: NCI-H460 (human non-small cell lung carcinoma); assay: PI3K viability assay, NCI-H460 cells; format: cell-based
Experimental: as §1

[3] = tested on: HCT-116 (human colon carcinoma); assay: PI3K viability assay, HCT-116 cells; format: cell-based
Experimental: as §1

[4] = Stability of PARP inhibiting (olaparib) conjugates in plasma and tumor tissue, release of olaparib; format: in vitro ADME; details: for Release of olaparib in plasma and tumor: plasma and tumor tissues, FIG. 1A-E
Experimental: Stabilities of conjugates comprising PARP inhibitor olaparib and HSP90 binding moieties were studied and the conversions of the conjugates to Olaparib were monitored.
In one study, concentrations of Compounds 4, 5, 6 and olaparib released from them in plasma and tumor tissue were monitored (FIG. 1A, FIG. 1B, and FIG. 1C). The linkers were cleaved to release olaparib, thus concentrations of olaparib increased over time. Half times of Compounds 4, 5, and 6 were calculated. […]

[5] = tested on: HCT-116, NCI-H460, and NCI-H1048 cells; assay: PI3K viability assays, summary over the three cell lines; format: cell-based, human; details: 4 hours treatment, viability 72 hrs post wash out
Experimental: as §1

[6] = Stability of PI3K inhibiting conjugates at 37° C. in plasma and tumor homogenates
Excerpt: Stabilities of conjugates comprising PI3K inhibitors and HSP90 binding moieties were studied.

Caspase-9 = assay: PI3K Caspase-9 assay with HCT-116 cells; format: cell-based, human; details: 4 hour treatment, assayed 24, 48, 72 hrs
Experimental: Caspase-9 is activated during apoptosis and is an indicator of apoptosis and cytokine processing. PI3K Caspase-9 assay was conducted with HCT-116 cells. HCT-116 cells were treated with conjugates and payloads for 4 hours. After 4 hours, compounds were washed out and cells were assayed for Caspase-9 24, 48, 72, and 144 hrs. Untreated cells were not viable at 144 hrs. Caspase-9 levels 24 hours, 48 hours, and 72 hours after 4 hour treatment with Compound 10, Compound 12, Compound 13, PF-0461502, Compound 11, T-1634, and BAY80-6946 were shown in FIG. 3.

[7] = In vivo tumor PK study, MDA-MB-231 breast cancer tumor line mouse model
Experimental: (§2) A tumor PK study was conducted with HSP90-binding conjugate Compound 12 in a MDA-MB-231 breast cancer tumor line mouse model. The payload on Compound 12 is the PI3K inhibitor PI-103. Both PI-103 and Compound 12 were given as a single dose at 0 hours to separate groups of mice and their concentrations in tumors were collected over time.

[8] = In vivo tumor PK study, HCT116 colon cancer tumor line mouse model; details: single dose at 0 hours, FIG. 4
Experimental: as §2, with “HCT116 colon” for “MDA-MB-231 breast”

[9] = NCI-H1048, 4 hours treatment, wash out, viability 72 hrs post wash out, Run 1, read-out: IC50 NCI-H1048 Run 1
[10] = NCI-H460, 4 hours treatment, wash out, viability 72 hrs post wash out, Run 1, read-out: IC50 NCI-H460 Run 1
[11] = HCT-116, 4 hours treatment, wash out, viability 72 hrs post wash out, Run 1, read-out: IC50 HCT-116 Run 1
[12] = plasma, Table 1, read-out: Plasma t1/2 (converted)
[13] = tumor tissue, Table 1, read-out: Tumor t1/2 (converted)
[14] = plasma, Table 3, read-out: Plasma t1/2 (converted)
[15] = tumor tissue, Table 3, read-out: Tumor t1/2 (converted)
[16] = NCI-H1048, 4 hours treatment, wash out, viability 72 hrs post wash out, Run 2, read-out: IC50 NCI-H1048 Run 2
[17] = HCT-116, 4 hours treatment, wash out, viability 72 hrs post wash out, Run 2, read-out: IC50 HCT-116 Run 2
[18] = NCI-H460, 4 hours treatment, wash out, viability 72 hrs post wash out, Run 2, read-out: IC50 NCI-H460 Run 2
[19] = NCI-H1048, read-out: IC50 NCI-H1048 Run 2
[20] = NCI-H460, read-out: IC50 NCI-H460 Run 2
[21] = HCT-116, read-out: IC50 HCT-116 Run 2

**Q.** For `COc1c(OCCCN2CCOCC2)ccc2c1N=C(NC(=O)c1cnc(N)nc1)N1CCN=C21` [BAY80-6946, Copanlisib, reference compound], which IC50 [1, 9] is on record?
**A.** 0.13 µM

**Q.** And the IC50 [2, 10]?
**A.** 0.62 µM

**Q.** And the IC50 [3, 11]?
**A.** 3.42 µM

**Q.** For `CC(C)c1cc(-c2nnc(O)n2-c2ccc3c(ccn3CCC3CCN(CCC(C)(C)SSCCOC(=O)NCn4nc(Cc5ccc(F)c(C(=O)N6CCN(C(=O)C7CC7)CC6)c5)c5ccccc5c4=O)CC3)c2)c(O)cc1O` [Compound 4], which “Release of olaparib in plasma and tumor” value [4] is on record?
**A.** release olaparib in plasma and tumor

**Q.** And the half-life [4, 12]?
**A.** 4.5 h

**Q.** What about the half-life [4, 13] of the same molecule?
**A.** 0.64 h

**Q.** For `CC(C)c1cc(-c2nnc(O)n2-c2ccc3c(ccn3CCC3CCN(CCC(C)(C)SSCCOC(=O)N(CCN(C)C)Cn4nc(Cc5ccc(F)c(C(=O)N6CCN(C(=O)C7CC7)CC6)c5)c5ccccc5c4=O)CC3)c2)c(O)cc1O` [Compound 5], which “Relative stability in plasma and tumor” value ([4]; plasma and tumor) is on record?
**A.** more stable than Compound 4 and Compound 6 in both plasma and tumor

**Q.** What about the “Release of olaparib in plasma and tumor” value [4] of the same molecule?
**A.** release olaparib in plasma and tumor

**Q.** And the half-life [4, 12]?
**A.** 35 h

**Q.** And the half-life [4, 13]?
**A.** 4.5 h

**Q.** With `CC(C)c1cc(-c2nnc(O)n2-c2ccc3c(ccn3CCC3CCN(CCCSSCCOC(=O)N(CCN(C)C)Cn4nc(Cc5ccc(F)c(C(=O)N6CCN(C(=O)C7CC7)CC6)c5)c5ccccc5c4=O)CC3)c2)c(O)cc1O` [Compound 6] as the molecule, how does the “Release of olaparib in plasma and tumor” value [4] read?
**A.** release olaparib in plasma and tumor

**Q.** What about the half-life [4, 12] of the same molecule?
**A.** 4.8 h

**Q.** What about the half-life [4, 13] of the same molecule?
**A.** 0.27 h

**Q.** Which “Release of olaparib in plasma and tumor” value [4] does the source give for `CC(C)c1cc(-c2nnc(O)n2-c2ccc(CN3CCN(CCC(C)(C)SSCCOC(=O)N(CCN(C)C)Cn4nc(Cc5ccc(F)c(C(=O)N6CCN(C(=O)C7CC7)CC6)c5)c5ccccc5c4=O)CC3)cc2)c(O)cc1O` [Compound 7] here?
**A.** release olaparib in plasma and tumor

**Q.** What about the half-life [4, 14] of the same molecule?
**A.** 43 h

**Q.** What about the half-life [4, 15] of the same molecule?
**A.** 4 h

**Q.** Which results are given for `CC(C)c1cc(-c2nnc(O)n2-c2ccc(CN3CCN(CCC(C)(C)SSc4ccc(COC(=O)N(CCN(C)C)Cn5nc(Cc6ccc(F)c(C(=O)N7CCN(C(=O)C8CC8)CC7)c6)c6ccccc6c5=O)cc4)CC3)cc2)c(O)cc1O` [Compound 8]?
**A.** Release of olaparib in plasma and tumor [4]: release olaparib in plasma and tumor; half-life [4, 14]: 46 h; half-life [4, 15]: 24 h

**Q.** For `CC(C)c1cc(-c2nnc(O)n2-c2ccc3c(ccn3CCC3CCN(C(=O)Oc4cccc(-c5nc(N6CCOCC6)c6oc7ncccc7c6n5)c4)CC3)c2)c(O)cc1O` [Compound 10], which “Activity in viability assays relative to payload” value [5] is on record?
**A.** appeared to lose activity

**Q.** And the IC50 [1, 9]?
**A.** 40.4 µM

**Q.** What about the IC50 [1, 16] of the same molecule?
**A.** ~9160 µM

**Q.** What about the IC50 [2, 10] of the same molecule?
**A.** ~3220 µM

**Q.** What about the IC50 [3, 17] of the same molecule?
**A.** ~15500 µM

**Q.** What about the “Stability in plasma versus tumor homogenates” value ([6]; 37° C.) of the same molecule?
**A.** less stable in plasma than in tumor homogenates

**Q.** What about the “Cleavage of carbamate groups” value ([6]; plasma) of the same molecule?
**A.** cleaved in plasma by carboxylesterase

**Q.** What about the Caspase-9 signal (Caspase-9) of the same molecule?
**A.** Lack or decrease in signal

**Q.** Which results are given for `COc1ccc(-c2cc3c(C)nc(N)nc3n([C@H]3CC[C@H](OCCOC(=O)N4CCC(CCn5ccc6cc(-n7c(O)nnc7-c7cc(C(C)C)c(O)cc7O)ccc65)CC4)CC3)c2=O)cn1` [Compound 11]?
**A.** IC50 [1, 9]: 1.77 µM; IC50 [1, 16]: 1.99 µM; IC50 [2, 10]: 3.64 µM; IC50 [2, 18]: 3.66 µM; IC50 [3, 11]: 10.2 µM; IC50 [3, 17]: 5.59 µM; Cleavage of carbamate groups [6]: cleaved in plasma by carboxylesterase; Stability in plasma versus tumor homogenates [6]: less stable in plasma than in tumor homogenates

**Q.** Which “Activity in viability assays relative to payload” value [5] does the source give for `CC(C)c1cc(-c2nnc(O)n2-c2ccc(CN3CCN(C(=O)Oc4cccc(-c5nc(N6CCOCC6)c6oc7ncccc7c6n5)c4)CC3)cc2)c(O)cc1O` [Compound 12] here?
**A.** retained activity similar to PI-103 payload

**Q.** What about the IC50 [1, 19] of the same molecule?
**A.** 1.27 µM

**Q.** And the “Concentrations in tumors over time” value ([7]; single dose at 0 hours, MDA-MB-231 tumor, FIG. 5)?
**A.** accumulation of the conjugate, retention of the conjugate and sustained release of the payload over time

**Q.** And the IC50 [2, 20]?
**A.** 1.95 µM

**Q.** What about the IC50 [3, 21] of the same molecule?
**A.** 3.94 µM

**Q.** And the Caspase-9 signal (Caspase-9)?
**A.** appears to retain activity similar to payload (PI-103) and ligand (ganetespib)

**Q.** And the “Concentrations in tumors over time” value [8]?
**A.** accumulation of the conjugate, retention of the conjugate and sustained release of the payload over time

**Q.** Which results are given for `CC(C)c1cc(-c2nnc(O)n2-c2ccc(CN3CCN(C(=O)NC(CSSCCNC(=O)Oc4cccc(-c5nc(N6CCOCC6)c6oc7ncccc7c6n5)c4)C(N)=O)CC3)cc2)c(O)cc1O` (stereo not drawn) [Compound 13]?
**A.** Activity in viability assays relative to payload [5]: retained activity similar to PI-103 payload; IC50 [1, 19]: 2.9 µM; IC50 [2, 20]: 8.2 µM; IC50 [3, 21]: 10.7 µM; Caspase-9 signal (Caspase-9): Lack or decrease in signal

**Q.** For `COc1ncc(-c2ccc3nccc(-c4ccnnc4)c3c2)cc1NS(=O)(=O)c1ccc(F)cc1F` [GSK-2126458, Omipalisib, reference compound], which IC50 [1, 9] is on record?
**A.** 0.21 µM

**Q.** What about the IC50 [2, 10] of the same molecule?
**A.** 0.19 µM

**Q.** What about the IC50 [3, 11] of the same molecule?
**A.** 1.5 µM

**Q.** Which results are given for `COc1ccc(-c2cc3c(C)nc(N)nc3n([C@H]3CC[C@H](OCCO)CC3)c2=O)cn1` [PF-04691502, reference compound]?
**A.** IC50 [1, 9]: 3.36 µM; IC50 [1, 16]: 2.63 µM; IC50 [2, 10]: 8.98 µM; IC50 [2, 18]: 3.53 µM; IC50 [3, 11]: 45.4 µM; IC50 [3, 17]: 11.3 µM

**Q.** With `Oc1cccc(-c2nc(N3CCOCC3)c3oc4ncccc4c3n2)c1` [PI-103, reference compound] as the molecule, how does the IC50 [1, 9] read?
**A.** 1.94 µM

**Q.** What about the IC50 [1, 16] of the same molecule?
**A.** 2.5 µM

**Q.** And the “Concentrations in tumors over time” value ([7]; mouse, in vivo)?
**A.** detected at 1 hour and then fell to a low level at 24 h

**Q.** What about the IC50 [2, 10] of the same molecule?
**A.** 2.85 µM

**Q.** What about the IC50 [2, 18] of the same molecule?
**A.** 4.34 µM

**Q.** And the IC50 [3, 11]?
**A.** ~16500 µM

**Q.** And the “Concentrations in tumors over time” value [8]?
**A.** detected at 1 hour and then fell below limit of detection

Source: US11241500B2, “HSP90-targeting conjugates and formulations thereof” (TARVEDA THERAPEUTICS, INC., priority 2016, dated 2022)
